The results in this text go back to patent publication US11672788B2, “Histone deacetylase inhibitors for immunomodulation in tumor microenvironment” (GREAT NOVEL THERAPEUTICS BIOTECH & MEDICALS CORPORATION, priority 2020, dated 2023).

The nature of one data set: Saturation solubility. It is filed as physicochemical. As to conditions: ddH2O, 25° C., 90 minutes; mean ± SD; BDL: Below detection limit. The protocol: Samples of 5 mg of compounds were added to 5 ml volumetric flasks containing ddH2O and shaken at 100 rpm in an incubator at 25° C. for 90 minutes. The resulting suspension was filtered through a 0.22 μm filter. The concentrations of compounds were determined spectrophotometrically at 256 nm. The saturation solubility of each sample was determined in triplicates and the mean value and standard deviation were reported.

For the next data set, the system named is NCI-N87. In words: In vitro cytotoxicity MTT assay. In kind it is cell-based. The settings on record: Homo sapiens, 72 h, IC50 ± SD. The method, then:
(§1) Six different cell lines were used, including human breast cancer cell line MDA-MB-231 (6×10^3), MDA-MB-453 (2.4×10^4), SK-BR-3 (6×10^3), human breast epithelial cell line M10 (6×10^3), human gastric carcinoma NCI-N87 (2.4×10^4), and human colorectal adenocarcinoma SW48 (2.4×10^4), and seeded in a 96 well plate. Cell lines were obtained from Bioresource Collection and Research Center, BCRC, Taiwan. […] After 72 h, MTT assay (Cayman™) was used to determine the cellular viability.
On the technique in general: Tetrazolium dyes change colour on reduction, which living cells bring about.

A further data set concerns SW48. In words: In vitro cytotoxicity MTT assay. It is filed as cell-based, human. As to conditions: Homo sapiens, SW48, 72 h, IC50 ± SD. The method, then: as §1
In the next data set the test system is MDA-MB-453. In words: In vitro cytotoxicity MTT assay. The settings on record: Homo sapiens, MDA-MB-453, 72 h, IC50 ± SD. In kind it is cell-based, human. The method, then: as §1
The subject of the next data set is M10. In words: In vitro cytotoxicity MTT assay. In kind it is cell-based, human. The settings on record: Homo sapiens, M10, 72 h, IC50 ± SD. The method, then:
as §1

A further data set relates to MDA-MB-231. In words: In vitro cytotoxicity MTT assay. The settings on record: Homo sapiens, MDA-MB-231, 72 h, IC50 ± SD. In kind it is cell-based, human. The method, then:
as §1

Another data set addresses HDAC2 (Homo sapiens (Human), UniProt Q92769). In words: HDACs 1, 2, and 3 enzymatic inhibition (fluorogenic kit, 1 h). It is filed as biochemical. As to conditions: 37° C. The method, then: (§2) HDACs assay was performed according to standard Protocols (Fluorgenic HDACs 1, 2, and 3 assay kit, BPS Bioscience™). […] After 1 h, assay developer was added to the samples and the absorbance was read at fluorogenic wavelength. The relative inhibition to HDACs 1, 2, and 3 activities in each sample was determined.

Another data set addresses HDAC3 (Homo sapiens (Human), UniProt O15379). The data set is described as above. In kind it is biochemical. As to conditions: 37° C. The method, then:
as §2

The next data set has as its target HDAC1 (Homo sapiens (Human), UniProt Q13547). Described as above. It is filed as biochemical. As to conditions: 37° C. The protocol:
as §2

Some results are limits rather than exact numbers.

By IC50 is commonly meant the concentration that inhibits the measured activity by half. Read a low IC50 as greater potency.

Chain of HDAC1 (Q13547 whole entry): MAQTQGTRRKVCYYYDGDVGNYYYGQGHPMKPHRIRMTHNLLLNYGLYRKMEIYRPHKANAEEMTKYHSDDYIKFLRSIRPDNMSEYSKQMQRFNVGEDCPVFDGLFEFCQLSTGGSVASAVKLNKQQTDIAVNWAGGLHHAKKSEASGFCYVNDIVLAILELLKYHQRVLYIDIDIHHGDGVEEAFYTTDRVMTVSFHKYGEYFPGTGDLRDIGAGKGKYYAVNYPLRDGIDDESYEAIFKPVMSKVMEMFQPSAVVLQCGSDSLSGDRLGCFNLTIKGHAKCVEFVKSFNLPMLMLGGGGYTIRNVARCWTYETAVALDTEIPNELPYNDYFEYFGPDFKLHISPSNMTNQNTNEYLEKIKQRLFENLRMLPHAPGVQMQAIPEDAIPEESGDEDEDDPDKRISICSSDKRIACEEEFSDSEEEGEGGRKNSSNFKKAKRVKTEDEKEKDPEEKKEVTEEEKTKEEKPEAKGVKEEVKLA
Chain of HDAC3 (O15379 whole entry): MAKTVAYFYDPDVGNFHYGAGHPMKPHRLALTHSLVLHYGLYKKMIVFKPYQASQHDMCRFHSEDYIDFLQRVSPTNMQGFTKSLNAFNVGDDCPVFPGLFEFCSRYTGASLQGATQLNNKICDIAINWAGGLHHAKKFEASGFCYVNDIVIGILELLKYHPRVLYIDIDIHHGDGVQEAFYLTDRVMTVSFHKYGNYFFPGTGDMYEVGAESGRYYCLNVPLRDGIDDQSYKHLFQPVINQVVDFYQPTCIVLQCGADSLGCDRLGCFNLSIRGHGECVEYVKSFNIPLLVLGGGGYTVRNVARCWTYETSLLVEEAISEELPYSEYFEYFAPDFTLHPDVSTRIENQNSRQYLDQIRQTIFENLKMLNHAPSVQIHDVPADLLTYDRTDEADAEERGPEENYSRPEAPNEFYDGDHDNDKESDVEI
Chain of HDAC3 (Q9Y618 395-489 partner): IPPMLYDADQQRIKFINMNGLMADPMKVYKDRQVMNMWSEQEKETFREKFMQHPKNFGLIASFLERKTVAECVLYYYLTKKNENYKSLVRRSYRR
Chain of HDAC2 (Q92769 whole entry): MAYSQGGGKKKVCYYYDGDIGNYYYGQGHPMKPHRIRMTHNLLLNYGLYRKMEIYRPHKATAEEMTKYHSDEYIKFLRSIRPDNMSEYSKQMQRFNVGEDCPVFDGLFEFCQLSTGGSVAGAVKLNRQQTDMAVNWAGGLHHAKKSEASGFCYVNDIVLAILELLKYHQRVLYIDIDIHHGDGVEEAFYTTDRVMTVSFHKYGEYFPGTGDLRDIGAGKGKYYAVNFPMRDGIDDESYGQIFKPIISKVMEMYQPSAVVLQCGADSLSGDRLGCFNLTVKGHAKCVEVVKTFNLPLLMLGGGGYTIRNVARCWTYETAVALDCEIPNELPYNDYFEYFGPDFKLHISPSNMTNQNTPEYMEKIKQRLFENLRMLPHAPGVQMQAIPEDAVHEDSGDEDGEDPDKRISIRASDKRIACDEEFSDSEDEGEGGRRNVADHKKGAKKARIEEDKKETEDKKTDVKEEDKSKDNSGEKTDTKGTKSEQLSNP

`Cc1ccc(/C=C/CC(=O)Nc2ccc(C(=O)Nc3ccccc3N)nc2)cn1` [GNTbm-06, 5-((E)-4-(6-methylpyridin-3-yl)but-3-enamido)-N-(2-aminophenyl)pyridine-2-carboxamide]: the “Saturation Solubility” value in the data set “Saturation solubility” is reported as “BDL”. The IC50 in the data set on NCI-N87 was determined as 2.2 ± 0.03 µM; in the data set with SW48, 2.32 ± 0.08 µM; in the data set on MDA-MB-453, 1.59 ± 0.01 µM; in the data set on M10 it was 1.95 ± 0.03 µM; in the data set with MDA-MB-231, 3.87 ± 0.7 µM; against HDAC2, 0.39 ± 0.02 µM. In addition, the IC50 against HDAC3 amounted to 0.009 ± 0.01 µM; on HDAC1 it was 0.1 ± 0.02 µM.

`Cc1ccc(CCCC(=O)Nc2ccc(C(=O)Nc3ccc(F)cc3N)nc2)cn1` [GNTbm-08, 5-(4-(6-methylpyridin-3-yl)butanamido)-N-(2-amino-4-fluorophenyl)pyridine-2-carboxamide]: the IC50 was 15.5 ± 1.7 µM in the data set on NCI-N87; 18.4 ± 1 µM with SW48; 3.78 ± 0.5 µM in the data set on MDA-MB-453; 20.8 ± 0.14 µM in the data set on M10; more than 50 µM in the data set with MDA-MB-231; 1.54 ± 0.28 µM on HDAC2. Besides, the values for the IC50 at HDAC3 and against HDAC1 were 0.001 ± 2e-05 µM and 0.37 ± 0.31 µM, respectively.

As to `Cc1ccc(CCCC(=O)Nc2ccc(C(=O)Nc3ccccc3N)nc2)cn1` [GNTbm-19, 5-(4-(6-methylpyridin-3-yl)butanamido)-N-(2-aminophenyl)pyridine-2-carboxamide], the IC50 is 4.3 ± 1.4 µM in the data set with NCI-N87; 8.73 ± 0.24 µM in the data set with SW48; 1.81 ± 0.02 µM with MDA-MB-453; 2.89 ± 0.12 µM with M10; 5.69 ± 1.7 µM in the data set on MDA-MB-231; 1.42 ± 0.19 µM against HDAC2. Besides, the values for the IC50 at HDAC3 and against HDAC1 were 2.98 ± 0.08 µM and 0.48 ± 0.03 µM, respectively.

Take `Nc1cc(C(F)(F)F)ccc1NC(=O)c1ccc(NC(=O)C/C=C/c2cccnc2)cn1` [GNTbm-11, 5-((E)-4-(pyridin-3-yl)but-3-enamido)-N-(2-amino-4-(trifluoromethyl)phenyl)pyridine-2-carboxamide]: the IC50 with NCI-N87 is 1.87 ± 0.04 µM; in the data set on SW48, 2.6 ± 0.45 µM; in the data set on MDA-MB-453 it was 2.28 ± 0.06 µM; in the data set on M10, 1.65 ± 0.2 µM; in the data set with MDA-MB-231 it was 1.71 ± 0.04 µM; at HDAC2, more than 20 µM. Further, the IC50 at HDAC3 is 0.001 µM; at HDAC1, more than 20 µM.

For the compound `Nc1cc(C(F)(F)F)ccc1NC(=O)c1ccc(NC(=O)C/C=C/c2cccnc2)cc1` [GNTbm-33, 4-((E)-4-(pyridin-3-yl)but-3-enamido)-N-(2-amino-4-(trifluoromethyl)phenyl)benzamide], the IC50 is 1.75 ± 0.02 µM in the data set on NCI-N87; 1.79 ± 0.03 µM in the data set on SW48; 1.94 ± 0.22 µM in the data set on MDA-MB-453; 2.01 ± 0.09 µM in the data set on M10; 1.62 ± 0.02 µM in the data set with MDA-MB-231; more than 20 µM against HDAC2. The IC50 against HDAC3 and at HDAC1 was more than 20 µM in each case.

Regarding `Nc1cc(F)ccc1NC(=O)c1ccc(NC(=O)CCCc2cccnc2)cc1` [GNTbm-37, 4-(4-(pyridin-3-yl)butanamido)-N-(2-amino-4-fluorophenyl)benzamide], the half-maximal inhibitory concentration (IC50) in the data set with NCI-N87 was 10.7 ± 0.6 µM; in the data set on SW48, 21.3 ± 1.64 µM; in the data set on MDA-MB-453, 4.89 ± 0.34 µM; in the data set with M10, 8.85 ± 0.59 µM; in the data set on MDA-MB-231 it was 8.07 ± 0.54 µM; against HDAC2, 3.15 ± 0.31 µM. In addition, the half-maximal inhibitory concentration (IC50) was found to be 1.74 ± 0.29 µM against HDAC3 and 9.04 ± 0.6 µM at HDAC1.

On to `Cc1ccc(CCCC(=O)Nc2ccc(C(=O)Nc3ccc(C(F)(F)F)cc3N)nc2)cn1` [GNTbm-25, 5-(4-(6-methylpyridin-3-yl)butanamido)-N-(2-amino-4-(trifluoromethyl)phenyl)pyridine-2-carboxamide], for which the IC50 was more than 50 µM with NCI-N87; more than 50 µM in the data set on SW48; 19.1 ± 2.07 µM with MDA-MB-453; more than 50 µM with M10; more than 50 µM in the data set with MDA-MB-231; more than 20 µM on HDAC2. Further, the IC50 against HDAC3 and against HDAC1 was more than 20 µM each time.

Take `Cc1ccc(/C=C/CC(=O)Nc2ccc(C(=O)Nc3ccc(C(F)(F)F)cc3N)nc2)cn1` [GNTbm-12, 5-((E)-4-(6-methylpyridin-3-yl)but-3-enamido)-N-(2-amino-4-(trifluoromethyl)phenyl)pyridine-2-carboxamide]: the IC50 with NCI-N87 was more than 50 µM; in the data set with SW48, more than 50 µM; with MDA-MB-453, 15.8 ± 3.9 µM; in the data set with M10, 38.5 ± 5.9 µM; in the data set on MDA-MB-231, more than 50 µM; on HDAC2, more than 20 µM. For the same compound, the IC50 on HDAC3 and against HDAC1 was more than 20 µM throughout.
